Patent publication US20250339531A1, “DUX4 POLYPEPTIDES AND NUCLEIC ACIDS FOR TREATING INFLAMMATORY AND AUTOIMMUNE CONDITIONS” (Fred Hutchinson Cancer Center, priority 2021, published 2025)
Entries after “also recorded” stand apart in the source; their conditions may differ.

Assays:
[1] = system: HLA-A, HLA-B, HLA-C, PSMB8, PSMB9, PSMB10 mRNA; assay: mRNA levels of MHC-I and immunoproteasome genes (RT-PCR, RNA-seq); type: cell-based, human; conditions: MB135 cells, 50 uM, data not shown
Experimental: (§1) Myoblasts were transfected with either (final concentrations) 10 μM 2′,3′-cGAMP (Sigma Aldrich), 2 μg/mL poly(I:C) (Invitrogen), or 1 μg/mL 3′ppp-dsRNA RIG-I ligand (Dan Stetson Lab, UW) using Lipofectamine 2000 according to manufacturer's protocol, or were stimulated with 1000U IFNβ (PeproTech) or 200 ng/ml IFNγ (R+D Systems) by addition directly to cell culture medium. After 16 hours of immune stimulation, RNA was collected from cells using the NucleoSpin RNA Kit (Macherey-Nagel) according to manufacturer's instructions. RNA samples were quantified by nanodrop and 1 μg of RNA per sample was treated with DNase I Amplification Grade (Thermo Fisher), and then synthesized into cDNA using the Superscript IV First-Strand Synthesis System, including oligo dT primers (Invitrogen). qPCR was run in 384-well plates on an Applied Biosystems QuantStudio 6 Flex Real-Time PCR System (ABI) and analyzed in Microsoft Excel.
Total RNA was isolated using the NucleoSpin RNA kit (Machery-Nagel) or Direct-zol RNA Mini-Prep Kit (Zymo Research) according to manufacturer's instructions. RNA-seq libraries were prepared using the Illumina TruSeq RNA Sample Prep v2 Kit and sequenced using 50 bp paired-end sequencing on the Illumina NextSeq platform by the Fred Hutchinson Cancer Center Genomics Core.

[2] = system: MHC-I, PSMB8, PSMB9, and PSMB10; assay: Immunoblot of IFNG-induced MHC-I and immunoproteasome protein in MB135 myoblasts treated with inhibitors; type: cell-based, human; conditions: MB135 myoblasts without DUX4 induction, agent then IFNG 16 h; 4EGI-1 at 50 uM
Experimental: To test if mTOR inactivation was sufficient to block MHC-I and immunoproteasome protein levels in the absence of DUX4, parental MB135 myoblasts were treated with mTOR inhibitors everolimus or Torin2. Everolimus is a second-generation rapamycin analog with binding specificity for mTORC1. […] To further validate the role of 4EBP1 in blocking MHC-I and immunoproteasome protein expression, MB135 cells were treated with 4EGI-1, a small molecule that pharmacologically mimics 4EBP function and inhibits eIF4E.
(§2) Protein samples were harvested in RIPA buffer [150 mM NaCl, 1% NP-40, 0.5% Na-deocycholate, 1% SDS, 25 mM Tris-HCl pH7.4] supplemented with protease and phosphatase inhibitor tablets (Pierce), followed by sonication in Diagenode Bioruptor. Lysate was cleared by centrifugation at 16000×g and quantified using a Pierce BCA assay (Thermo Fisher Scientific). Samples were run on NuPAGE precast polyacrylamide gels (Invitrogen) and transferred to PVDF membrane. Membranes were blocked in PBS containing 0.1% Tween-20 and 5% non-fat dry milk before overnight incubation at 4° C. with primary antibodies (see resource table for a list of antibodies used in this study). Membranes were incubated with horseradish peroxidase-conjugated secondary antibodies for 1 hour at room temperature and SuperSignal chemiluminescent substrate (Thermo Scientific) was used for detection on film with a Mini-medical 90 processor. Membranes were stripped with Restore Western Blot Stripping Buffer (Pierce).

[3] = system: eIF2-alpha, RPS6, 4EBP1, eIF4E, eEF2; assay: Immunoblot of translational regulators; type: cell-based, human; conditions: parental MB135 myoblasts treated with mTOR inhibitor
Experimental: as §2

[4] = system: proteins that co-immunoprecipitated with DUX4-CTD constructs expressed in MB135 myoblasts; assay: LC-MS of proteins co-immunoprecipitated with DUX4-CTD (Table 1) and western validation; type: binding, human; design: key to 4. mL1dL2 + Dox + IFNG / 4. + IFNG mix / 4. longCTD + Dox + IFNG / 3. + IFNg + Dox longCTD / 3. + Dox longCTD / 3. + IFNG longCTD: peptide-spectrum matches (PSMs) per protein; conditions: kind of count not given; for 4. mL1dL2 + Dox + IFNG: LC-MS value per protein co-immunoprecipitated with DUX4-CTD construct mL1dL2 in MB135 myoblasts
Text: As an unbiased method to identify proteins that interact with the C-terminal region of DUX4, liquid chromatography mass spectroscopy (LC-MS) was used to identify proteins that co-immunoprecipitated with DUX4-CTD constructs expressed in MB135 myoblasts. In the first experiment, MB135iDUX4-CTD cells were used, either untreated, treated with doxycycline alone, or with both doxycycline and IFNG. In the second experiment, MB135iDUX4-CTD and MB135iDUX4mL1dL2 cells were used, both treated with doxycycline and IFNG, compared to these two cell lines untreated and combined as a control. Proteins with a minimum of 2 peptide spectrum matches (PSMs) in at least one sample that were identified in both experiments were assigned to one of ten categories (see Methods) to separate candidate interactors from other categories that might be co-purified because of obligate interactions (e.g., proteasome or ribosome) or might be less likely to be physiologically relevant (e.g., cytoskeletal proteins). Candidate interactors were then ranked based on the total PSMs for that protein across all samples.
Centrifugation at 2500 rcf at 4° C. for 5 min pelleted the nuclei, supernatant was discarded, and nuclei resuspended in 1 mL IP buffer pH 7.4 (25 mM Tris-HCl pH 7.5, 175 mM NaCl, 1 mM EDTA, 0.2% NP-40, 5% glycerol) and incubated for 1 hour at 4° C. with rotation then spun at 21000 rcf for 10 minutes at 4° C. to pellet insoluble debris. Protein concentration was determined using the Pierce BCA Protein Assay Kit (ThermoFisher, 23225). An equivalent amount of protein per sample was pre-cleared with Dynabeads Protein G (Invitrogen) bound to mouse IgG (Abcam #131368) for 1 hour at 4° C. with rotation. FLAG-tagged constructs were then immunoprecipitated with Dynabeads Protein G beads coupled to mouse anti-FLAG M2 mAb (Sigma F3165) for 3 hours at 4° C. with rotation. Beads were washed 3× with 1 mL IP buffer and eluted by adding 2× NuPage LDS Sample Buffer (Thermo Fisher, diluted from 4× with PBS) to the beads and heating for 10 minutes at 70° C.
For LC-MS, anti-FLAG immunoprecipitation was performed with beads cross-linked to the anti-FLAG antibody and the proteins competitively eluted with FLAG peptide. Eluted protein samples were electrophoresed into a NuPage 4-12% Bis-Tris gel, excised, and processed by the Fred Hutchinson Cancer Research Center Proteomics Core. Samples were reduced, alkylated, digested with trypsin, desalted, and run on the Orbitrap Eclipse Tribid Mass Spectrometer (Thermo Fisher). Proteomics data were analyzed using Proteome Discoverer 2.4 against a Uniprot human database that included common contaminants using Sequest HT and Percolator for scoring. […] Proteins that were identified in at least one sample from both independent experiments with at least 2 PSMs in one sample were assigned to one of ten categories: 1, candidates; 2, cytoskeletal associated; 3, cytoskeletal; 4, ribosome/translation associated; 5, proteasome associated; 6, membrane or extracellular; ER, golgi, or vesicle associated; 8, lipid metabolism; 9, chaperones; 10, nuclear import or nuclear membrane associated. The proteins in category 1 were further investigated for interactions with DUX4.

[5] = system: interferon-stimulated genes IFIH1, ISG20, CXCL9, and CD74; assay: IFNG induction of interferon-stimulated genes, RT-qPCR in MB135 cells with doxycycline-inducible transgenes; type: cell-based, human; conditions: MB135 cells, doxycycline-induced transgene, continuous protocol, IFNG 16 h
Experimental: (§3) All myoblast experiments were conducted in immortalized MB135 or MB200 myoblast cell lines (isolated from a control or FSHD2 subject, respectively cultured in Ham's F-10 Nutrient Mix (Gibco) supplemented with 15% fetal bovine serum (Hyclone), 100 U/100 μg/ml penicillin/streptomycin (Gibco), 1 μM dexamethasone (Sigma), and 10 ng/ml recombinant human basic fibroblast growth factor (PeproTech). To differentiate the myoblasts to myotubes, media was changed to DMEM supplemented with 10 μg/ml insulin (Sigma) and 10 μg/ml transferrin (Sigma). Cell lines containing doxycycline-inducible transgenes were additionally cultured with 2 μg/mL puromycin (Sigma). Transgenes were induced with 1 μg/mL of doxycycline (Sigma) for 4 hours prior to other treatments for a total of 20 hrs. The Kitra-SRS cells (RRID:CVCL_YI69) were provided by Dr. H. Otani and Osaka University (Nakai et al., 2019) and were cultured in DMEM supplemented with 10% fetal bovine serum (Hyclone) and 100 U/100 μg/ml penicillin/streptomycin (Gibco). Biological replicates consisted of independent but parallel experiments, such as simultaneously stimulating three cell culture plates with IFNγ. Technical replicates consisted of repeat measurements of the same biological sample, such as loading the same biological sample in triplicate for analysis by RT-qPCR.
as §1

ZSCAN4 = assay: Activation of DUX4 target gene ZSCAN4, RT-qPCR; type: cell-based, human; conditions: MB135 cells ± doxycycline
Experimental: as §3, §1

Molecule: O=C(O)C(Cc1ccccc1[N+](=O)[O-])=NNc1nc(-c2ccc(Cl)c(Cl)c2)cs1 (mixture of isomers) [4EGI-1]
- effect on mRNA levels of MHC-I and iProteasome subunits [1]: had no effect on mRNA levels
- effect on IFNG-induced MHC-I and immunoproteasome protein in the absence of DUX4 [2]: suppressed IFNG-induced MHC-I and immunoproteasome subunits at the protein level; also recorded: suppressed IFN-induced MHC-I and iProteasome subunits at the protein level

Molecule: COc1ccc(C[C@H](NC(=O)[C@H](C)NC(=O)CN2CCOCC2)C(=O)N[C@@H](Cc2ccccc2)C(=O)C2(C)CO2)cc1 (stereo in doubt) [ONX-0914]
- effect on IFNG-induced MHC-I and immunoproteasome protein in the absence of DUX4 [2]: did not reduce IFNG-induced MHC-I levels

Molecule: CC(C)C[C@H](NC(=O)[C@H](CCc1ccccc1)NC(=O)CN1CCOCC1)C(=O)N[C@@H](Cc1ccccc1)C(=O)N[C@@H](CC(C)C)C(=O)[C@@]1(C)CO1 [Carfilzomib]
- effect on IFNG-induced MHC-I and immunoproteasome protein in the absence of DUX4 [2]: abrogated the accumulation of MHC-I following IFNG treatment

Molecule: Nc1ccc(-c2ccc3ncc4ccc(=O)n(-c5cccc(C(F)(F)F)c5)c4c3c2)cn1 [Torin2, reference compound]
- phosphorylation of 4EBP1 and eIF4E [3]: complete hypophosphorylation of 4EBP1 and reduced eIF4E phosphorylation
- phosphorylation of RPS6 [3]: blocked phosphorylation of RPS6
- effect on IFNG-induced MHC-I and immunoproteasome protein in the absence of DUX4 [2]: sufficient to post-transcriptionally repress IFNG-induced MHC-I, PSMB8, PSMB9, and PSMB10 protein expression

Molecule: CO[C@H]1C[C@@H]2CC[C@@H](C)[C@@](O)(O2)C(=O)C(=O)N2CCCC[C@H]2C(=O)O[C@H]([C@H](C)C[C@@H]2CC[C@@H](OCCO)[C@H](OC)C2)CC(=O)[C@H](C)/C=C(\C)[C@@H](O)[C@@H](OC)C(=O)[C@H](C)C[C@H](C)/C=C/C=C/C=C/1C [everolimus, reference compound]
- phosphorylation of 4EBP1 and eIF4E [3]: 4EBP1 phosphorylation and eIF4E phosphorylation remained largely unaltered
- phosphorylation of RPS6 [3]: blocked S6K phosphorylation of RPS6
- effect on IFNG-induced MHC-I and immunoproteasome protein in the absence of DUX4 [2]: did not block MHC-I or immunoproteasome protein expression

Molecule: USP9X
- 4. mL1dL2 + Dox + IFNG [4]: 7

Molecule: VIM
- 4. + IFNG mix ([4]; LC-MS value per protein co-immunoprecipitated from MB135 myoblasts, + IFNG mix sample (no Dox)): 66
- 4. mL1dL2 + Dox + IFNG [4]: 43

Molecule: XRCC5
- 4. mL1dL2 + Dox + IFNG [4]: 1

Molecule: YBX3
- 4. mL1dL2 + Dox + IFNG [4]: 7

Molecule: iDUX4dL2: DUX4 transgene deleting the second (L)LxxL(L) motif, SEQ ID NO:100 (PCGLLLDELLASPEFLQQAQPLLETEAPGELEASEEAASLEAPLSEEYRA)
- suppression of IFNG induction of ISGs (IFIH1, ISG20, CXCL9, CD74) [5]: lost the ability to suppress the panel of ISGs
- transcriptional activation of DUX4 target gene ZSCAN4 (ZSCAN4): failed to activate the DUX4 target ZSCAN4

Molecule: iDUX4mL1: DUX4 transgene mutating the first (L)LxxL(L) motif, SEQ ID NO: 99 (PCGLLAAEAAASPEFLQQAQPLLETEAPGELEASEEAASLEAPLSEEEYRALLEEL)
- suppression of IFNG induction of ISGs (IFIH1, ISG20, CXCL9, CD74) [5]: partial activity, suppressing 3 of the 4 ISGs
- transcriptional activation of DUX4 target gene ZSCAN4 (ZSCAN4): failed to activate the DUX4 target ZSCAN4
